Structures are written as SMILES.

Experimental findings from patent US20110138488A1, “DEFICIENCY IN THE HISTONE DEMETHYLASE JHDM2A RESULTS IN IMPAIRED ENERGY EXPENDITURE AND OBESITY” (priority 2008, published 2011) are described below.

One assay relates to primary myotubes. The assay is described as follows: AICAR-induced respiration (oxygen consumption) in primary myotubes. In kind it is cell-based, mouse. The note with it: wild-type (Jhdm2a+/+) primary myotubes, 500 μM AICAR for 16 hours. The method, then: Jhdm2a^+/+ and Jhdm2a^−/− primary myotubes were treated with 500 μM AICAR for 16 hours. Rates of oxygen consumption were normalized to cell counts. *p<0.05. The effect of Jhdm2a deficiency on energy expenditure was analyzed. Systemic energy expenditure includes basal metabolic rate, physical activity, and adaptive thermogenesis (Spiegelman, Cell 104, 531 (2001)). Metabolic studies were performed using TSE LabMaster calorimetry Module (TSE-System) in the Clinical Nutrition Research Unit at the University of North Carolina. For respiration measurements, cultured cells were resuspended in PBS. Oxygen consumption was measured using a Clarke-type electrode (Diamond General) at baseline, and after treatment with 10 μM isoproterenol (ISO) (Wu, Cell 98, 115 (1999)). For normalization of the respiration rates, an aliquot of the cells was lysed and protein concentration was measured. […] The decreased energy expenditure of the Jhdm2a KO mice was not a result of abnormal metabolic hormone secretion. […] Activation of AMPK signaling was determined by treating C2C12 myotubes with 800 μM AICAR (Sigma Aldrich) for 16 hours. […] To gain further support for the involvement of JHDM2A in AMPK-mediated mitochondrial function, the effect of Jhdm2a-deficiency on AMPK activation-mediated respiration in primary myotubes was measured.

Another assay concerns PGC-1α promoter. The following applies: control C2C12 cells, AICAR treatment.
The test system of the next assay is Ucp1 enhancer. The assay is described as follows: ChIP analysis at the Ucp1 enhancer in HIB1B cells after ISO treatment. In kind it is cell-based. The following applies: control HIB1B cells. An excerpt: The Jhdm2a knock-down-induced increase in H3K9me2 level could be partially rescued by overexpression of JHDM2A coupled with ISO treatment. *P<0.05.
Results are normalized to IgG, and are shown as the fold-enrichment relative to that in the control cells without ISO. *P<0.05.
The possibility that Jhdm2a directly regulates Ucp1 expression was subsequently examined. […] The binding was site-specific as Jhdm2a was not detected within the Ucp1 coding region, see FIG. 39, amplicon B).
In addition to removing the repressive H3K9me2 mark at the Ucp1 enhancer, Jhdm2a could contribute to Ucp1 activation by affecting the recruitment of transcription factors and co-activators. To examine this possibility, the effect of the loss of Jhdm2a on the recruitment of transcription factors (PPARγ, Rxrα and Atf2) and co-activators (Pgc1α, CBP/p300 and Src1) was analyzed. […] However, the enhanced binding by PPARγ and Rxra disappeared in the Jhdm2a knock-down cells, see FIG. 41. Similar results were also observed for the co-activators, see FIG. 42. […] Collectively, the data herein indicate that Jhdm2a contributes to β-adrenergic-stimulated Ucp1 activation by maintaining a low level of H3K9me2 at the Ucp1 enhancer region, and by augmenting the recruitment of PPARγ and Rxrα and their co-activators to the Ucp1 enhancer element.

Another assay deals with HIB1B cells. The assay is described as follows: qRT-PCR and western blot of Jhdm2a in HIB1B cells after ISO. In kind it is cell-based. The method, then: Given that cold-induced Ucp1 upregulation is intact in the PPARα-deficient mice (Kersten, et al., J. Clin. Invest. 103:1489 (1999)), the possibility was explored that Jhdm2a directly regulates Ucp1 expression in response to cold exposure. To ascertain that the effect of Jhdm2a on Ucp1 expression was cell-intrinsic, short-hairpin RNA (shRNA)-mediated was performed in the brown adipose cell line HIB1B using lentivirus-based shRNA. To generate a Jhdm2a knock-down HIB1B cell line, undifferentiated cells were infected with a lentiviral virus expressing a shRNA for Jhdm2a or control. The shRNA sequence for Jhdm2a was 5′-GCAGGTGTCACTAGCCTTAAT-3′ (SEQ ID NO:76). The differentiation of HIB1B cells was performed as previously described (Ross, et al., Proc. Natl. Acad. Sci. USA 89:7561 (1992)). […] Importantly, enforced overexpression of human JHDM2A in the knock-down cells partially rescued Ucp1 expression, see FIG. 36B. […] ISO-induced upregulation of Pgcla was also maintained in HIB1B knock-down cells, see FIG. 38.

Experimental for PGC-1α promoter: Wild-type and Jhdm2a knock-down C2C12 myotubes with or without AICAR treatment were used for ChIP followed by qPCR. Antibodies against H3K9me1 and H3K9me2 were used in the ChIP assays. Results were normalized to input, and are shown as fold of enrichment relative to that in the wild-type C2C12 cells without AICAR treatment. *p<0.05.
To determine whether PGC-1α is a direct target of JHDM2A, ChIP assays were performed. Ctrl or Jhdm2a KD C2C12 myotubes with or without AICAR treatment were used for ChIP analysis with histone modification-specific antibodies and anti-JHDM2A as described previously (Okada, Nature 450, 119 (2007)).

On to `NC(=O)c1ncn([C@@H]2O[C@H](CO)[C@@H](O)[C@H]2O)c1N` [AICAR], for which the “respiration (rate of oxygen consumption)” value with primary myotubes is listed as “increased respiration”. Further, the “H3K9me1 and H3K9me2 levels at the PGC-1α promoter” value with PGC-1α promoter was “decreased”.

`CC(C)NCC(O)c1ccc(O)c(O)c1` (centres unmarked) [ISO, isoproterenol]: in the assay on Ucp1 enhancer, the “H3K9me2 levels at the Jhdm2a binding site of the Ucp1 enhancer” value was “specifically decreased”; the “binding of PPARγ, Rxrα and Atf2 to the Ucp1 enhancer” value was “increased”. Besides, the “Jhdm2a messenger RNA and protein levels” value in the assay on HIB1B cells is recorded as “upregulated”.
